In one experiment the test system is Mus musculus. As to the kind of experiment: Compound was tested for in vivo growth inhibition of pancreatic ductal adenocarcinoma (Panc 03) in mice, expressed as antitumor efficacy; range is 11-25. Type of experiment: functional.
Regarding `Cc1ccc(NCCN(C)C)c2c(=O)c3ccccc3sc12`, the T/C was 25%.
The compound `CCN(CC)CCNc1ccc(CNC(=O)c2ccccc2)c2sc3ccccc3c(=O)c12` came in with a T/C of 25%.
As for `CCN(CC)CCNc1ccc(CO)c2sc3ccccc3c(=O)c12` [HYCANTHONE], the T/C is reported as 25%.

Another experiment relates to Mus musculus. Kind of experiment: Compound was tested for in vivo growth inhibition of pancreatic ductal adenocarcinoma (Panc 03) in mice, expressed as antitumor efficacy; range is 26-42. It is filed as functional.
Regarding `CCN(CC)CCNc1ccc(COC)c2sc3ccccc3c(=O)c12`, the T/C is 26%.
In turn, `CCN(CC)CCNc1ccc(COC(=O)C(C)(C)C)c2sc3ccccc3c(=O)c12` came in with a T/C of 42%.
The compound `CCN(CC)CCNc1ccc(CN(C)C)c2sc3ccccc3c(=O)c12` registered a T/C of 42%.

The subject of another experiment is Mus musculus. Kind of experiment: The compound was tested for in vivo growth inhibition of pancreatic ductal adenocarcinoma (Panc 03) in mice. Type of experiment: functional.
`CCN(CC)CCNc1ccc(CNS(=O)(=O)c2ccc(N)cc2)c2sc3ccccc3c(=O)c12` yielded a T/C of 3%.
In turn, `CCN(CC)CCNc1ccc(/C=N/c2ccccc2)c2sc3ccccc3c(=O)c12` displayed a T/C of 2%.
For `CCCCCCC(=O)OCc1ccc(NCCN(CC)CC)c2c(=O)c3ccccc3sc12`, the T/C was determined as 2%.

The test system of another experiment is Mus musculus. As to the kind of experiment: Compound was tested for in vivo growth inhibition of pancreatic ductal adenocarcinoma (Panc 03) in mice, expressed as antitumor efficacy; range is 0-10. It is filed as functional.
As for `CCN(CC)CCNc1ccc(CSC)c2sc3ccccc3c(=O)c12`, the T/C is listed as 10 score (0-10).
Regarding `CNCc1ccc(NCCN(C)C)c2c(=O)c3ccccc3sc12`, the T/C is given as 10 score (0-10).
As for `CCN(CC)CCNc1ccc(CNS(=O)(=O)c2ccccc2)c2sc3ccccc3c(=O)c12`, the T/C is 10 score (0-10).
Regarding `CCN(CC)CCNc1ccc(CN(C)S(=O)(=O)CC)c2sc3ccccc3c(=O)c12`, the T/C is reported as 0 score (0-10).
`CNCc1ccc(NCCCN(C)C)c2c(=O)c3ccccc3sc12`: the T/C is given as 10 score (0-10).

A further experiment relates to Mus musculus. Kind of experiment: Compound was tested for in vivo growth inhibition of pancreatic ductal adenocarcinoma (Panc 03) in mice, expressed as antitumor efficacy. Type of experiment: functional.
Consider `CN(C)CCNc1ccc(CN)c2sc3ccccc3c(=O)c12`, for which the T/C came to 0%.
For `CCN(CC)CCNc1ccc(CN(C)S(C)(=O)=O)c2sc3ccccc3c(=O)c12`, the T/C is 0%.
As to `CCNCc1ccc(NCCN(CC)CC)c2c(=O)c3ccccc3sc12`, the T/C was determined as 0%.
On the same count and under the same terms, with `CN(C)CCNc1ccc(CNS(C)(=O)=O)c2sc3ccccc3c(=O)c12` the figure was 0%; with `CCN(CC)CCNc1ccc(C(N)=O)c2sc3ccccc3c(=O)c12`, 0%; with `CCN(C=O)Cc1ccc(NCCN(CC)CC)c2c(=O)c3ccccc3sc12`, 0%.
With `CCN(CC)CCNc1ccc(CNC(C)=O)c2sc3ccccc3c(=O)c12`, the T/C is 0%.
The compound `CCN(CC)CCNc1ccc(CN(CC)S(C)(=O)=O)c2sc3ccccc3c(=O)c12` yielded a T/C of 0%.

(Values after ChEMBL document CHEMBL1127670, “Comparative molecular field analysis of the antitumor activity of 9H-thioxanthen-9-one derivatives against pancreatic ductal carcinoma 03” (1994).)
